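96-well plates; 48 h exposure; 5 concentrations. Endpoints by linear interpolation between flanking doses. Not reached: highest tested concentration assigned. At the GI50, growth is halved.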 The source made the active and inactive calls. Rule as the data show it: active = GI50 up to about 1.1 µM and inactive = higher.
Key:
Experiment in all cases: NCI-60 cell line screen, 48 h
MOLT-4 = test system: MOLT-4
A498 = test system: A498
HCT-15 = test system: HCT-15
SK-MEL-2 = test system: SK-MEL-2
NCI-H522 = test system: NCI-H522
RXF 393 = test system: RXF 393
UACC-257 = test system: UACC-257
RPMI-8226 = test system: RPMI-8226
MCF7 = test system: MCF7
U-251 = test system: U-251
HT-29 = test system: HT-29
SK-MEL-28 = test system: SK-MEL-28
HL-60 = test system: HL-60
SF-295 = test system: SF-295
UACC-62 = test system: UACC-62
Hs-578T = test system: Hs-578T
Malme-3M = test system: Malme-3M
SW-620 = test system: SW-620
SN12C = test system: SN12C
HCT-116 = test system: HCT-116
CAKI-1 = test system: CAKI-1
LOX IMVI = test system: LOX IMVI
NCI-H23 = test system: NCI-H23
NCI/ADR-RES = test system: NCI/ADR-RES
SR = test system: SR
OVCAR-4 = test system: OVCAR-4
ACHN = test system: ACHN
K562 = test system: K562
SF-539 = test system: SF-539
IGROV-1 = test system: IGROV-1
T47D = test system: T47D
OVCAR-3 = test system: OVCAR-3
NCI-H460 = test system: NCI-H460
786-0 = test system: 786-0
DU-145 = test system: DU-145
HOP-62 = test system: HOP-62
EKVX = test system: EKVX
SNB-19 = test system: SNB-19
SNB-75 = test system: SNB-75
A549 = test system: A549
SF-268 = test system: SF-268
OVCAR-8 = test system: OVCAR-8
UO-31 = test system: UO-31
COLO 205 = test system: COLO 205
HOP-92 = test system: HOP-92
PC-3 = test system: PC-3
OVCAR-5 = test system: OVCAR-5
BT-549 = test system: BT-549
MDA-MB-435 = test system: MDA-MB-435
HCC 2998 = test system: HCC 2998
M14 = test system: M14
KM12 = test system: KM12
SK-MEL-5 = test system: SK-MEL-5
TK-10 = test system: TK-10
SK-OV-3 = test system: SK-OV-3
NCI-H226 = test system: NCI-H226
MDA-MB-231 = test system: MDA-MB-231
MDA-N = test system: MDA-N
CCRF-CEM = test system: CCRF-CEM

With `CC(Oc1ccc(Cl)cc1Cl)C(=O)NN1C(=O)CC(=O)N(c2ccccc2)C1=S` (centres undefined) the GI50 (MOLT-4) was 46.3 µM (inactive), the GI50 (A498) was 26.9 µM (inactive) and the GI50 (HCT-15) was 38.2 µM. The GI50 (SK-MEL-2) was 42.2 µM (inactive), the GI50 (NCI-H522) was 31.5 µM (inactive) and the GI50 (RXF 393) was 41 µM (inactive). The GI50 (UACC-257) was 74.6 µM (inactive), the GI50 (RPMI-8226) was 30.7 µM (inactive) and the GI50 (MCF7) was 35.5 µM (inactive). The GI50 (U-251) was 41.9 µM (inactive), the GI50 (HT-29) was 70.1 µM (inactive) and the GI50 (SK-MEL-28) was 98.6 µM (inactive). For the same compound, the GI50 (HL-60) was 0.527 µM (active), the GI50 (SF-295) was 43.4 µM (inactive) and the GI50 (UACC-62) was 37.5 µM (inactive). For the same compound, the GI50 (Hs-578T) was > 100 µM (inactive), the GI50 (Malme-3M) was > 100 µM (inactive) and the GI50 (SW-620) was 53.1 µM (inactive). The GI50 (SN12C) was 52.4 µM (inactive), the GI50 (HCT-116) was 35.5 µM (inactive) and the GI50 (CAKI-1) was 53.6 µM (inactive). The GI50 (LOX IMVI) was 55 µM (inactive), the GI50 (NCI-H23) was 37.2 µM (inactive) and the GI50 (NCI/ADR-RES) was 39.9 µM (inactive). The GI50 (SR) was 4.67 µM (inactive), the GI50 (OVCAR-4) was 45.8 µM (inactive) and the GI50 (ACHN) was 48.1 µM (inactive). For the same compound, the GI50 (K562) was 41.7 µM (inactive), the GI50 (SF-539) was > 100 µM (inactive) and the GI50 (IGROV-1) was 55.3 µM (inactive). The GI50 (T47D) was 43.2 µM (inactive), the GI50 (OVCAR-3) was 42.5 µM (inactive) and the GI50 (NCI-H460) was 62.8 µM (inactive). For the same compound, the GI50 (786-0) was 60.3 µM (inactive), the GI50 (DU-145) was 53.3 µM (inactive) and the GI50 (HOP-62) was 56.2 µM (inactive). For the same compound, the GI50 (EKVX) was 69.5 µM (inactive), the GI50 (SNB-19) was 66.4 µM (inactive) and the GI50 (SNB-75) was 54.1 µM (inactive). The GI50 (A549) was 47.6 µM (inactive), the GI50 (SF-268) was 95.1 µM (inactive) and the GI50 (OVCAR-8) was 50.2 µM (inactive). The GI50 (UO-31) was 64.7 µM (inactive), the GI50 (COLO 205) was 33.7 µM (inactive) and the GI50 (HOP-92) was 24.9 µM (inactive). The GI50 (PC-3) was 40.5 µM (inactive), the GI50 (OVCAR-5) was > 100 µM (inactive) and the GI50 (BT-549) was 59.6 µM (inactive). For the same compound, the GI50 (MDA-MB-435) was 41.9 µM (inactive), the GI50 (HCC 2998) was 63.4 µM (inactive) and the GI50 (M14) was 73.3 µM (inactive). The GI50 (KM12) was 18.1 µM (inactive), the GI50 (SK-MEL-5) was 47.4 µM (inactive) and the GI50 (TK-10) was > 100 µM (inactive). For the same compound, the GI50 (SK-OV-3) was > 100 µM (inactive), the GI50 (NCI-H226) was 37.8 µM (inactive) and the GI50 (MDA-MB-231) was 65.9 µM (inactive).
In the case of `CCCCCCCCCCCCC(O)[C@H]1CC[C@H](C(O)CCCCCC(=O)CCCCC2CC(C(C)=O)C(=O)O2)O1` (some centres undefined), the GI50 (A498) is reported as 13.3 µM (inactive), the GI50 (HCT-15) is reported as 8.18 µM and the GI50 (MDA-N) is reported as 3.68 µM (inactive). For the same compound, the GI50 (SK-MEL-2) was 13.6 µM (inactive), the GI50 (NCI-H522) was 3.94 µM (inactive) and the GI50 (RXF 393) was 7.6 µM (inactive). For the same compound, the GI50 (UACC-257) was 1.16 µM (inactive), the GI50 (RPMI-8226) was 1.65 µM (inactive) and the GI50 (MCF7) was 3.47 µM (inactive). For the same compound, the GI50 (U-251) was 8.87 µM (inactive), the GI50 (HT-29) was 6.73 µM (inactive) and the GI50 (SK-MEL-28) was 16.9 µM (inactive). The GI50 (HL-60) was 2.12 µM (inactive), the GI50 (SF-295) was 4.95 µM (inactive) and the GI50 (UACC-62) was 4.67 µM (inactive). The GI50 (Hs-578T) was 15.4 µM (inactive), the GI50 (Malme-3M) was 11.5 µM (inactive) and the GI50 (SW-620) was 11.4 µM (inactive). For the same compound, the GI50 (CCRF-CEM) was 3.17 µM (inactive), the GI50 (SN12C) was 7.24 µM (inactive) and the GI50 (HCT-116) was 1.02 µM (active). For the same compound, the GI50 (CAKI-1) was 17.1 µM (inactive), the GI50 (LOX IMVI) was 2.08 µM (inactive) and the GI50 (NCI-H23) was 2.22 µM (inactive). The GI50 (NCI/ADR-RES) was 3.44 µM (inactive), the GI50 (SR) was 0.0264 µM (active) and the GI50 (OVCAR-4) was 4.09 µM (inactive). The GI50 (ACHN) was 7.29 µM (inactive), the GI50 (K562) was 1.33 µM (inactive) and the GI50 (SF-539) was 14.1 µM (inactive). For the same compound, the GI50 (IGROV-1) was 11 µM (inactive), the GI50 (OVCAR-3) was 4.25 µM (inactive) and the GI50 (NCI-H460) was 3.03 µM (inactive). The GI50 (786-0) was 12.9 µM (inactive), the GI50 (DU-145) was > 43.6 µM (inactive) and the GI50 (HOP-62) was 4.98 µM (inactive). The GI50 (EKVX) was 5.69 µM (inactive), the GI50 (SNB-19) was 9.4 µM (inactive) and the GI50 (SNB-75) was 10.5 µM (inactive). The GI50 (A549) was 3.7 µM (inactive), the GI50 (SF-268) was 12.3 µM (inactive) and the GI50 (OVCAR-8) was 8.97 µM (inactive). For the same compound, the GI50 (UO-31) was 8.97 µM (inactive), the GI50 (COLO 205) was 6.3 µM (inactive) and the GI50 (HOP-92) was 10.4 µM (inactive). For the same compound, the GI50 (PC-3) was 4.95 µM (inactive), the GI50 (OVCAR-5) was 18.4 µM (inactive) and the GI50 (BT-549) was 15 µM (inactive). The GI50 (MDA-MB-435) was 8.34 µM (inactive), the GI50 (HCC 2998) was 16.2 µM (inactive) and the GI50 (M14) was 8.77 µM (inactive). For the same compound, the GI50 (KM12) was 8.77 µM (inactive), the GI50 (SK-MEL-5) was 0.802 µM (active) and the GI50 (TK-10) was 14.1 µM (inactive). For the same compound, the GI50 (SK-OV-3) was 9.68 µM (inactive), the GI50 (NCI-H226) was 17.6 µM (inactive) and the GI50 (MDA-MB-231) was 11 µM (inactive).
